Data published in PubChem BioAssay (NCI).
Values joined by “and” are separate entries in the source; they are usually repeats but may differ in a detail not shown here. Equal values may be shown once.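 Step 1: Grow cells in 96-well plates. Step 2: Expose to compound for 48 hours at 5 concentrations. Step 3: Interpolate endpoints linearly; if unreached, use highest concentration. GI50 marks 50% less growth. TGI marks complete inhibition of growth.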

What was measured:
Assay in all cases: NCI tumour cell line growth inhibition, 48 h
M14 melanoma = system: M14 melanoma
SK-MEL-28 melanoma = system: SK-MEL-28 melanoma
NCI-H226 lung = system: NCI-H226 lung
BT-549 breast = system: BT-549 breast
HL-60(TB) leukemia = system: HL-60(TB) leukemia
OVCAR-4 ovarian = system: OVCAR-4 ovarian
KM12 colon = system: KM12 colon
MOLT-4 leukemia = system: MOLT-4 leukemia
OVCAR-8 ovarian = system: OVCAR-8 ovarian
HCT-15 colon = system: HCT-15 colon

SMILES	GI50 (M14 melanoma)	TGI (M14 melanoma)	GI50 (SK-MEL-28 melanoma)	TGI (SK-MEL-28 melanoma)	GI50 (NCI-H226 lung)	TGI (NCI-H226 lung)	GI50 (BT-549 breast)	TGI (BT-549 breast)	GI50 (HL-60(TB) leukemia)	TGI (HL-60(TB) leukemia)	GI50 (OVCAR-4 ovarian)	TGI (OVCAR-4 ovarian)	GI50 (KM12 colon)	TGI (KM12 colon)	GI50 (MOLT-4 leukemia)	TGI (MOLT-4 leukemia)	GI50 (OVCAR-8 ovarian)	TGI (OVCAR-8 ovarian)	GI50 (HCT-15 colon)	TGI (HCT-15 colon)
CCCCCCCC/C=C/CCCCCCCC1=NC(C)(C)CN1C(C)(C)CO	1.78 µM	3.22 µM	1.79 µM	3.18 µM	2.87 µM	7.61 µM	11.3 µM	24.1 µM	2.23 µM	5.5 µM	2.12 µM	4.4 µM	1.97 µM	3.45 µM	2.62 µM	5.81 µM	–	–	–	–
COc1ccc(-c2ccc(OC)c(OC)c2OC)cc1	0.817 µM	> 77.8 µM	14.9 µM	> 100 µM	17.3 µM	> 100 µM	1.57 µM	> 62.6 µM	1.04 µM	9.93 µM	5.42 µM	> 100 µM	0.767 µM	> 51.8 µM	2.39 µM	> 100 µM	6.9 µM	> 100 µM	0.766 µM	> 100 µM
CN1CCN(C2=NC(=O)/C(=C\c3ccc(N(C)C)cc3)S2)CC1	3.79 µM	> 100 µM	> 100 µM	> 100 µM	> 100 µM	> 100 µM	> 100 µM	> 100 µM	46 µM	> 100 µM	> 100 µM	> 100 µM	> 100 µM	> 100 µM	42.2 µM	> 100 µM	> 100 µM	> 100 µM	> 100 µM	> 100 µM
Cn1c(COC(=O)NCCc2ccccn2)nc2c(N3CCOCC3)nc(Cl)nc21	1.53 µM	3.34 µM	1.7 µM	3.47 µM	12.3 µM	30.4 µM	1.71 µM	4.06 µM	1.17 µM	4.61 µM	1.62 µM	3.63 µM	1.8 µM	4.75 µM	2.41 µM	8.09 µM	2.38 µM	10.1 µM	1.14 µM	3.2 µM
NCCO/C=C/C(N)C(=O)O (stereo unspecified)	–	> 100 µM	–	> 100 µM	–	> 100 µM	–	> 100 µM	–	> 100 µM	–	> 100 µM	–	> 100 µM	–	–	–	> 100 µM	–	> 100 µM
CCCC(=O)O[C@]1(C)CC[C@@H]2[C@H]3[C@@H]1[C@@H]1C[C@@](C)(O)[C@H](OC)CC[C@](C)(OC(=O)[C@@H]2C)[C@H]3O1	28.9 µM	> 100 µM	19.9 µM	35 µM	55 µM	> 100 µM	40.3 µM	> 100 µM	21.2 µM	45.1 µM	22.1 µM	50 µM	19.4 µM	44.7 µM	23.5 µM	52 µM	39.1 µM	> 100 µM	47 µM	> 100 µM
CN(C)CCC(=O)Nc1ccc(-n2cc(-c3cccc(NC(=S)Nc4cccc(-c5cn(-c6ccc(NC(=O)CCN(C)C)cc6)nn5)c4)c3)nn2)cc1	49.5 µM	> 100 µM	24.5 µM	53.4 µM	35.3 µM	> 100 µM	22.9 µM	66.4 µM	> 100 µM	> 100 µM	35.4 µM	> 100 µM	10.7 µM	34 µM	20.7 µM	84.6 µM	42.3 µM	> 100 µM	> 100 µM	> 100 µM
O=c1[nH]c(C2CCCN2)nc2c1oc1ccc(Cl)cc12 (stereo unspecified)	57.1 µM	> 100 µM	> 100 µM	> 100 µM	18.6 µM	> 100 µM	31.5 µM	> 100 µM	> 100 µM	> 100 µM	> 39.1 µM	> 100 µM	> 100 µM	> 100 µM	> 100 µM	> 100 µM	> 100 µM	> 100 µM	> 100 µM	> 100 µM
O=C1C(=O)c2c(nc3ccc(C(F)(F)F)cn23)-c2ccccc21	0.18 µM	0.329 µM	0.221 µM	0.431 µM	0.72 µM	1.77 µM	0.186 µM	0.442 µM	0.201 µM	0.6 µM	0.137 µM	0.271 µM	0.288 µM	0.995 µM	0.237 µM	0.602 µM	0.253 µM	0.651 µM	0.202 µM	0.656 µM
Oc1ccc(Cl)cc1C=Nc1cnc2ccccc2c1	–	> 100 µM	–	> 100 µM	–	> 100 µM	–	> 100 µM	–	34.9 µM	–	> 100 µM	–	> 100 µM	–	47.2 µM	–	> 100 µM	–	> 100 µM
C[C@@]1(F)[C@H](O)[C@@H](CO)O[C@H]1n1ccc(=O)[nH]c1=O	> 100 µM	> 100 µM	> 100 µM	> 100 µM	> 100 µM	> 100 µM	> 100 µM	> 100 µM	> 100 µM	> 100 µM	> 100 µM	> 100 µM	> 100 µM	> 100 µM	> 100 µM	> 100 µM	> 100 µM	> 100 µM	> 100 µM	> 100 µM
C[C@@H]1C[C@@H]([C@H](O)CC2CC(=O)NC(=O)C2)C(=O)[C@@H](C)C1	0.248 µM	2.8 µM and 1.6 µM	0.249 µM	2.01 µM and 1.34 µM	0.326 µM	7.26 µM and 4.86 µM	0.927 µM	9.01 µM	0.202 µM	2.14 µM and 0.43 µM	0.299 µM	4.97 µM and 1.2 µM	0.215 µM	–	0.139 µM	2.06 µM and 0.518 µM	0.202 µM	1.7 µM and 1.27 µM	0.284 µM	15.9 µM and 9.96 µM
COc1c2ccoc2nc2c(OC)c(OCC(O)C(C)(C)O)ccc12 (stereo unspecified)	–	> 100 µM	–	> 100 µM	–	> 100 µM	–	> 100 µM	–	> 100 µM	–	> 100 µM	–	> 100 µM	–	> 100 µM	–	> 100 µM	–	> 100 µM
[N-]=[N+]=CC(=O)CCC(N)C(=O)O (stereo unspecified)	10.6 µM	> 250 µM	15.3 µM	202 µM	–	> 250 µM	–	> 250 µM	2.3 µM	208 µM	4.2 µM	> 206 µM	3.14 µM	> 250 µM	0.468 µM	–	7.03 µM	> 218 µM	2 µM	> 222 µM
